# Measurements taken from patent publication US11066421B1, “Synthetic cinchona alkaloids against cancer” (Ares Pharmaceuticals, LLC, priority 2021, dated 2021).
# Entries after “also recorded” stand apart in the source; their conditions may differ.
# Legend:
# [1] = system: primary leukemia/lymphoma cells; assay: Annexin V flow cytometric apoptosis assay in primary cells from patients; type: cell-based, human
# Description: Apoptotic death was monitored using multiparameter flow cytometry, as previously reported (F. M. Uckun, et al., 2011, British Journal of Haematology, 153:741-752; F. M. Uckun et al., 2015, J Clin Invest., 125:1006-18). Controls included vehicle (PBS) treated cells (CON). Cells were analyzed for apoptosis using the standard quantitative flow cytometric apoptosis assay using the Annexin V-FITC Apoptosis Detection Kit from Sigma. The labeled cells were analyzed on a flow cytometer. The percent apoptosis was calculated using the formula: 100-100×(Percentage of non-apoptotic cells in test sample/Percentage of non-apoptotic cells in untreated control sample). The percentages for Annexin V FITC^−PI^− viable cells and Annexin V-FITC^+PI^+ advanced apoptotic cells for each sample are indicated in the respective quadrants of the depicted two-color fluorescence dot plots.
# We examined the ability AP-5 to cause apoptotic death in freshly obtained primary cancer cells from Ficoll-Hypaque separated, highly enriched populations of primary leukemia/lymphoma cells isolated from bone marrow (BM, N=13) or peripheral blood (PB, N=13) specimens of 26 patients with hematological malignancies, 3 patients with rare forms of leukemia (one each with prolymphocytic leukemia [PLL], plasma cell leukemia [PCL], large granular cell leukemia [LGL]), one patient with chronic myeloid leukemia in blast crisis (CML-BC), including 8 patients with chronic lymphocytic leukemia (CLL)/well differentiated lymphocytic lymphoma (WDLL), one patient with acute myeloid leukemia (AML), 11 patients with B-lineage acute lymphoblastic leukemia (ALL) and 2 patients with T-lineage ALL (FIG. 1). Cells were treated with standard chemotherapeutic agents at various concentrations provided in RPMI-1640 medium supplemented with 10% fetal bovine serum (FBS) and incubated at 37° C. for 24 hr. Dexamethasone (DEQ.) was used. at 50 μg/ml, Adriamycin (ADR) at 10 μg/ml, vincristine (VCR), gemcitabine (GEM), fludarabine (FLU), methotrexate (MTX), etoposide (ETO), cytarabine (ARA-C) and cladribine (2-CDA) at 25 μg/ml. The cells were washed with serum-free RPMI-1640 medium and then processed for apoptosis assays. […]
# Apoptotic death was monitored using multiparameter flow cytometry, as previously reported (F. M. Uckun et at, 2006, Brit Journal of Hematol. 135:500-8; F. M. Uckun et al., 2011, Brit Journal of hematol. 153:741-52; F. M. Uckun et al., 2015, J. Clin. Invest. 125:1006-18). Exposure of phosphatidylserine to the outer leaflet of the leukemic cell membrane was measured using fluorescein isothiocyanate (FITC)-conjugated annexin V, the natural ligand of phosphatidylserine (R&D Systems, Minneapolis, Minn., USA). […] The labelled cells were analyzed using a FACS Vantage flow cytometer (Becton Dickinson, Mountain view, CA, USA). […]
# BT-20 = assay: Confocal laser scanning microscopy apoptosis, BT-20; type: cell-based, human; conditions: 100 nM, 48 hours
# Description: Confocal Laser Scanning Microscopy. Cells were treated with cinchona alkaloids or PBS in culture medium for 48 hours. After 48 hr of culture, cells were co-stained with a rabbit polyclonal antitubulin antibody (Green Fluorescence) and the DNA-specific dye Toto-3 (Blue Fluorescence) and examined by laser scanning confocal microscopy using a Bio-Rad MRC-1024 Laser Scanning Confocal Microscope equipped with a Kr/Ar laser (Bio-Rad, Hercules, Calif., USA) mounted on a Nikon Eclipse E800 upright microscope with high numerical aperture objectives (Nikon, Melville, N.Y., USA), as described (F. M. Uckun, et al., 2010, Proc. Natl. Acad. Sci. USA, 107: 2902-7; F. M. Uckun., et al., 2010, British Journal of Haematology, 149: 508-17; F. M. Uckun, et al., 2013, Blood. 121:4348-54; F. M. Uckun et al., 2010, Proc. Natl Acad. Sci. USA 107:16852-57; F. M. Uckun et al., 2012, Proc. Natl Acad. Sci. USA 109:18072-77). Cell lines. BT-20 (ATCC HTB-19), a triple negative breast cancer cell line, PC-3 (ATCC CRL-1435) a CRPC cell line (small cell endocrine carcinoma) derived from a Stage IV prostate cancer patient with bone metastases were obtained from American Type Culture Collection (ATCC) (Manassas, Va.). […] Cells were washed in PBS and counterstained with the DNA-specific dye TOTO-3 (blue fluorescence) (Molecular Probes Inc., Eugene, Oreg.) for 10 min at a dilution of 1:1000. […]
# [2] = 24 hr in vitro exposure, primary cells from 26 patients
substance,measurement,setting,value
"2,4,6-Tri (9-O-dihydrocinchoninyl)pyrimidine [AP-5]",% apoptosis (Mean±SE),[1]; [2],93.5±1.1%
same,median percentage of apoptosis,[1]; [2],96.1%
same,% apoptosis (range),"[1]; 24 hr in vitro exposure, primary cells from 26 patients, range",79.9-99.6%
same,potency versus standard chemotherapy drugs tested side by side,"[1]; 24 hr, % apoptosis compared",substantially more potent than any of the 9 standard chemotherapy drugs tested side by side
same,signs of apoptosis by confocal imaging,BT-20,virtually all of the BT-20 or PC-3 cells treated with AP-5 showed signs of advanced apoptosis; also recorded: virtually all of the BT-20 cells treated with AP-5 showed signs of advanced apoptosis
